Measurements published in patent US20240197712A1, “TGF-BETA INHIBITION FOR IMMUNODEFICIENCY VIRUS REACTIVATION FROM LATENCY, ENHANCEMENT OF IMMUNODEFICIENCY VIRUS-SPECIFIC RESPONSES AND IMMUNODEFICIENCY VIRUS CURE” (Northwestern University, priority 2022, published 2024).

Key:
U1 cells = assay: PMA-induced HIV reactivation in U1 cells, intracellular p24 staining; type: cell-based
Description: ACH2 cells and U1 cells were obtained through the NIH HIV Reagent Program, Division of AIDS, NIAID, NIH (contributed by Dr. Thomas Folks). Cells ([…]) were cultured in triplicates in RPMI with 10% FBS and Pen/Strep in presence of TGF-β1 (10 ng/ml R&D systems), TGF-β1 and galunisertib (1 μM MedChemExpress), galunisertib alone or mock treated. In the HIV latency reactivation conditions, PMA (Phorbol 12-myristate 13-acetate, SigmaAldrich) was added at 100 ng/ml together with galunisertib or TGF-β1. After 18 hrs, cells were stained intracellularly for p24 using the KC57 antibody (NIH HIV Reagent Program) as previously described (74).

SIVmac251 or SIVmac239 = assay: Plasma viral load, SIV-infected ART-treated macaques, 1-2 weeks galunisertib; type: in vivo, rhesus macaques
Description: Rhesus macaques (n=7) were infected with SIVmac251 or SIVmac239 rectally or intravenously (FIG. 9) and ART (Tenofovir [PMPA], Emtricitabine [FTC] and Dolutegravir [DTG]) was initiated between week 12 and 17 post infection. Galunisertib treatment was initiated after 26 or 27 weeks on ART for 7 or 14 days. Galunisertib powder (MedChemExpress—MCE, NJ, USA) was dissolved in water and given orally in a treat twice daily at 5 mg/kg or 10 mg/kg (FIG. 9). Blood viral load was monitored biweekly before and during cART and every 3-4 days during 438 Galunisertib treatment. Colorectal biopsies and LN FNA were collected before and after galunisertib treatment.
Blood was collected in EDTA tubes and plasma was separated by density gradient centrifugation and used for the determination of plasma VL by SIVgag qRT-PCR at NIRC or at Leidos (Quantitative Molecular Diagnostics Core, AIDS and Cancer Virus Program Frederick National Laboratory). Tissue VL from snap frozen colorectal biopsies and LN FNA were performed at Leidos (A14X004, A14X005 and A14X013) as described in (78) or, for the remaining macaques and from PBMC of all macaques they were performed as described in (77).

SIV-env [1] = assay: Anti-envelope antibody titers (ELISA); type: in vivo, rhesus macaques; settings: in 3 of the 7 macaques
Description: 96-well plates were coated with the SIV gp130 Recombinant protein 595 (AIDS reagents program, Division of AIDS, NIAID, NIH at 1 μg/ml in coating carbonate buffer 2 hours at room temperature (RT). After washing the plates 4 times with washing buffer, the plates were incubated in blocking buffer (2% BSA in PBS) overnight. Plates were washed and dilutions of test sera or control sera were added to the plate starting at 1:50. Sera were incubated at 37° C. for 30′ and plate washed and detected with anti-Rhesus IgG HRP (NHPRR) 30′ at 37° C. After washing and substrate incubation at RT for 30′ plates were read at 450/650 nm.

SIV-env [2] = assay: ImmunoPET/CT, four-cycle study; type: in vivo, rhesus macaques
Description: ImmunoPET/CT for mapping SIV signals in total body scans were conducted in part as reported previously (110). The probe consisted of primatized p7D3 anti-env F(ab)′2 coupled with the chelator DOTA and labeled with Cu64 just prior to administration to the animals. For probe administration, the animals were sedated, and a venous catheter was placed into an arm of leg vein to minimize bleeding of the probe into the tissue surrounding the site of injection. The probe for each animal consisted of ˜1 mg of the p7D3 F(ab)′2 labeled with 2-3 mCi of ^64Cu. After injection, the animals were allowed to recuperate in their cage until the next day. At 24 hours, the animals were again anesthetized with Telazol and the macaque's body was immobilized in dorsal recumbency on the scanner table. Scans were conducted 535 in a Phillips Gemini TF64 scanner. The final CT image was compiled from 200 to 300 slices, depending on macaque size. PET Image analysis was performed using the MIM software. PET/CT fusions were generated scaled according to calculated Standardized Uptake Values (SUV). The SUV scale for the PET scans was selected based on the overall signal intensity of the PET scans (whole body), and the CT scale was selected for optimal visibility of the tissues. All images and maximum image projections were set to the same scale for visual comparisons.
Multimodal registration and ROI segmentation were executed using the MIM software (MIM Software, Inc., Cleveland, OH) for PET and CT images, encompassing 250 to 300 fractions, depending on the macaque's body size. PET and CT images were fused to quantify changes in SUV (Standardized Uptake Value) within Regions of Interest (ROI), with PET SUV scale determined by overall signal intensity and CT scale optimized for tissue visibility. Segmentations were performed for various anatomical regions: Whole Body, Liver, Lymph nodes, Gut, Kidneys, Spleen, and Vertebrae. The external body was outlined for the Whole-Body contour, while the GRADIENT method PET-Edge and interactive contouring tools were employed for other ROIs. Liver segmentation initially utilized PET-Edge in PET coronal-sectional view, followed by interactive delineation for the structure and the corresponding signals. Kidneys, Spleen, and Vertebrae volume were determined based on CT scans in the cross-sectional view, incorporating PET signals into contours. […] To quantify the signal in the axillary lymph nodes, the data-point in each macaque featuring the strongest PET signal was chosen as a basis for an inhouse Multi-Time-Point Contour Transfer Workflow, followed by interactive contouring of the signal to all time points. The workflow integrated CT scans to establish and map specific ROIs in subsequent scans, thereby accounting for any changes in the animal's orientation at other time points through manual adjustments. To quantify the signal in the gut tissue, the body segment below the stomach to above the cervix was initially isolated. The Gut's SUV was then calculated by extracting the spleen, both kidneys, liver, and bones within the designated body region using Boolean operations.

SIVmac239M2 = assay: Cell-associated vDNA in PBMC, colorectal biopsies and lymph nodes; type: in vivo, rhesus macaques
Description: Blood was collected in EDTA tubes and plasma was separated by density gradient centrifugation and used for the determination of plasma VL by SIVgag qRT-PCR at NIRC or at Leidos (Quantitative Molecular Diagnostics Core, AIDS and Cancer Virus Program Frederick National Laboratory). Tissue VL from snap frozen PBMC pellets, colorectal biopsies and LN FNA were performed as described in (77). SIV-TILDA was performed on freshly stored PBMC before cycle 1 and at the end of cycle 4 of galunisertib by Accelevir, Baltimore, MD.

Structure (SMILES): Cc1cccc(-c2nn3c(c2-c2ccnc4ccc(C(N)=O)cc24)CCC3)n1 [galunisertib, Galunisertib]
- frequency of p24-gag+ cells in unstimulated cultures (U1 cells; U1 cells, no PMA, TGF-β1 10 ng/ml or galunisertib 1 μM alone): slightly increase
- frequency of p24-gag+ cells in the presence of exogenous TGF-β1 (U1 cells; U1 cells, TGF-β1 10 ng/ml + galunisertib 1 μM, with or without PMA): restores the frequency of p24-gag+ cells
- frequency of p24-gag+ cells in PMA-stimulated U1 cells (U1 cells; galunisertib 1 μM alone, PMA 100 ng/ml): no impact
- macaques with increase in pVL over 100 copies/ml (SIVmac251 or SIVmac239; 5 or 10 mg/kg orally twice per day, 1 or 2 weeks): 2 of the 7
- increase in pVL in macaque not continuously suppressed before treatment (SIVmac251 or SIVmac239; single macaque (A14X)): > 2 Log
- increase in the titer of SIV-env specific antibodies (SIV-env [1]): 0.5 to 1 Log
- SIV reactivation in tissues by PET/CT (SIV-env [2]; Example 5, all macaques, particularly after cycle 2): Extensive SIV reactivation
- SUV increase in gastrointestinal area and axillary lymph nodes (SIV-env [2]; compared to before cycle 1 (BC1)): significant in cycle 3
- SUV at the level of the spleen or kidney (SIV-env [2]; vs BC1): No SUV increase
- SUV in the liver and whole-body (SIV-env [2]; vs BC1): significant increase in SUV
- Spine SUV (SIV-env [2]; vs BC1): increased significantly with the first cycle
- cell-associated SIV DNA in lymph nodes, gut and PBMC (SIVmac239M2; 8 macaques, four 2-week cycles): Half to 1 Log decrease
- CA-vDNA decrease in gut, median (SIVmac239M2; BC1 (week 35 pi) vs AC4 (week 49 pi)): 0.77 folds
- CA-vDNA decrease in PBMC, range (SIVmac239M2; BC1 vs AC3): 0.28-0.88 folds
- CA-vDNA decrease in gut, range (SIVmac239M2; BC1 vs AC4): 0.33-0.94 folds
- CA-vDNA decrease in PBMC, median (SIVmac239M2; BC1 vs end of cycle 3 (AC3)): 0.58 folds
- cell-associated viral DNA in lymph nodes and colorectal biopsies (SIVmac239M2; Example 5, end of cycle 4 vs before Gal): decreased by over a Log
- CA-vDNA decrease in LN, median (SIVmac239M2; right axillary LN, BC1 vs AC4): 0.93 folds
- CA-vDNA decrease in LN, range (SIVmac239M2; right axillary LN, BC1 vs AC4): 0.33-0.98 folds
